Assay results: patent publication US5817826A, “Oxazolinone derivatives having cytosolic phospholipase A2 inhibitory activity” (Shionogi & Co., Ltd., priority 1993, dated 1998)

Key:
[1] = target: T1, cytosolic PLA2 (Homo sapiens, UniProt P47712); test: Cytosolic PLA2 inhibition activity (sonicated liposomes with 1-palmitoyl-2-[14C]arachidonyl-sn-glycero-3-phosphocholine); type: biochemical; conditions: for IC50: 2 μM radiolabeled phosphatidylcholine liposomes, 1 mM CaCl2, pH 7.4; for inhibition at 2 µM: compound at 2 μM, relative to enzyme control
T1 sequence (P47712 1-749): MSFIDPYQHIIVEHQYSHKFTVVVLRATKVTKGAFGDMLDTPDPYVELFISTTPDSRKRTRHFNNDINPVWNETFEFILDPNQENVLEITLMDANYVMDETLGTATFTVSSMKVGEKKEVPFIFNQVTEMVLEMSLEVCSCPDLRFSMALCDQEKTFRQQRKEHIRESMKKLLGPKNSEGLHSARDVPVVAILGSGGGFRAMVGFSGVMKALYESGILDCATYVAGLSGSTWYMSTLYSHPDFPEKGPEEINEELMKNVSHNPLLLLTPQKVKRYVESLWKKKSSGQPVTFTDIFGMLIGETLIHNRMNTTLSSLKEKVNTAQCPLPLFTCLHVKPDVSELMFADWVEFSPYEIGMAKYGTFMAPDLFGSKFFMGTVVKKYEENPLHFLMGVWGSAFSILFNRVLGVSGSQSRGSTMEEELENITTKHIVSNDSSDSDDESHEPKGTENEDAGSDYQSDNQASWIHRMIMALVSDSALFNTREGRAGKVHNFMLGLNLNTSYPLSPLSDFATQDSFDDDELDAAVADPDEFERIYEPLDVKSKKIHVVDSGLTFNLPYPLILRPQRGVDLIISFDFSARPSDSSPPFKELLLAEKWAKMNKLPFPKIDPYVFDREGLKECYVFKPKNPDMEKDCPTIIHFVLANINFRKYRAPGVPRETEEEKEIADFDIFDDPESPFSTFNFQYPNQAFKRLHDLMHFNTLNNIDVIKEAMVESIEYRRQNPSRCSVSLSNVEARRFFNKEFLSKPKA
Method: Taking the above matter into consideration, the compounds of the present invention were evaluated for their effect on cytosolic PLA2 activity as described in published literature [Kramer, R. M., Robers, E. F., Manetta, J. and Putanam, J. E. et al., J. Biol. Chem. 268 (8): 5268-5272, 1991]. Briefly, PLA2 activity was assayed using sonicated liposomes containing 1-palmitoyl-2-[^14 C]arachidonyl-sn-glycero-3-phosphocholine and sn-1,2-dioleoyl glycerol at a molar ratio of 2:1. The assay mixture contained 1 mM CaCl2, 2 mM 2-mercaptoethanol, 150 mM NaCl, 50 mM Hepes, pH 7.4, and 0.1 mg/ml BSA. The substrate consisted of 2 μM radiolabeled phosphatidycholine liposomes containing 1 μM dioleoyl glycerol.
The amount of released fatty acids in the reaction as mentioned above was quantitated by a liquid scintillation counter. Separately, the same assay was performed except that the compound of the present invention was not added to serve as the enzyme control. The inhibitioory activity was expressed as a percent (%) of PLA2 activity in the enzyme control, and thereby 50% inhibition concentration was calculated.

[2] = hygroscopicity (printed with the elemental analysis); type: physicochemical; conditions: amorphous form

Structure (SMILES) | IC50 [1] | inhibition at 2 µM [1] | hygroscopicity [2]
O=C1O[C@H](c2ccccc2)[C@@H](c2ccccc2)N1CCCCc1ccccc1 [Compound 0247] | 10 µM | 23% | 
O=c1oc(-c2ccccc2)c(-c2ccccc2)n1CCCCc1ccccc1 [Compound 0108] | 59 µM |  | 
O=c1oc(-c2ccccc2)c(-c2ccccc2)n1COCc1ccccc1 [Compound 0099] | 42 µM | 12% | 
O=c1[nH]cc(C(c2ccccc2)c2ccccc2)o1 [Compound 0142] | 220 µM |  | 
Cn1c(-c2ccccc2)c(-c2ccccc2)oc1=O [Compound 0002] | 68 µM |  | 
CCCCn1c(-c2ccccc2)c(-c2ccccc2)oc1=O [Compound 0044] | 54 µM | 19% | 
C#CCn1c(-c2ccccc2)c(-c2ccccc2)oc1=O [Compound 0062, 3-(2-propynyl)-4,5-diphenyl-oxazol-2-one] | 50 µM |  | 
CC(C)=CCC/C(C)=C/CC/C(C)=C/Cn1c(-c2ccccc2)c(-c2ccccc2)oc1=O [Compound 0069] | 153 µM |  | 
CC(C)=CCC/C(C)=C/CN1C(=O)O[C@H](c2ccccc2)[C@@H]1c1ccccc1 [Compound 0169] | 85 µM |  | 
CC(C)=CCC/C(C)=C/Cn1cc(-c2ccccc2)oc1=O [Compound 0095] | 35 µM | 26% | 
CC(C)=CCn1cc(C(c2ccccc2)c2ccccc2)oc1=O [Compound 0155] | 57 µM |  | 
O=c1oc(-c2ccccc2)c(-c2ccccc2)n1Cc1ccccc1F [Compound 0047, 3-(2-Fluorobenzyl)-4,5-diphenyl-oxazol-2-one] | 35 µM | 17% | 
O=C1O[C@H](c2ccccc2)[C@H](c2ccccc2)N1Cc1ccc(Cl)s1 [Compound 0199] | 32 µM | 32% | 
Cc1noc(C)c1Cn1c(-c2ccccc2)c(-c2ccccc2)oc1=O [Compound 0109] | 250 µM |  | 
O=c1oc(-c2ccccc2)c(-c2ccccc2)n1Cc1ccccn1 [Compound 0091, 3-(2'-Pyridylmethyl)-4,5-diphenyl-oxazol-2-one] | 105 µM | 11% | 
O=c1oc(-c2ccccc2)c(-c2ccccc2)n1Cc1cccc(F)c1 [Compound 0039, 3-(3-Fluorobenzyl)-4,5-diphenyl-oxazol-2-one] | 6.2 µM | 24% | 
CC(C)=CCn1c(-c2ccccc2)c(-c2ccccc2)oc1=O [Compound 0071] | 13 µM | 18% | 
O=c1oc(-c2ccccc2)c(-c2ccccc2)n1CCCc1ccccc1 [Compound 0092] | 8.3 µM | 28% | 
CC(C)=CCC/C(C)=C\CN1C(=O)O[C@@H](c2ccccc2)[C@@H]1c1ccccc1 [Compound 0313] | ~50 µM | 13% | 
CC(C)=CCC[C@H](C)CCN1C(=O)O[C@@H](c2ccccc2)[C@@H]1c1ccccc1 [Compound 0347] | 7.4 µM | 33% | 
CC(C)=CCn1cc(C(c2ccccc2)(c2ccccc2)c2ccccc2)oc1=O [Compound 0140] | 89 µM |  | 
O=c1oc(-c2ccccc2)c(-c2ccccc2)n1Cc1ccccc1 [Compound 0001] | 6 µM | 34% | 
O=C1O[C@@H](c2ccccc2)[C@H](c2ccccc2)N1CCCCc1ccccc1 [Compound 0289] | 6.6 µM | 36% | 
O=C1O[C@H](c2ccccc2)[C@@H](c2ccccc2)N1Cc1ccc(Cl)s1 [Compound 0246] | 50 µM | 20% | 
O=c1oc(-c2ccccc2)c(-c2ccccc2)n1Cc1ccc(F)cc1 [Compound 0048, 3-(4-Fluorobenzyl)-4,5-diphenyl-oxazol-2-one] | 17 µM |  | 
CC(C)=CCC/C(C)=C/Cn1cc(C(c2ccccc2)c2ccccc2)oc1=O [Compound 0156] | 120 µM |  | 

Structure (SMILES) | IC50 [1] | inhibition at 2 µM [1] | hygroscopicity [2]
O=C(O)c1ccc(-c2oc(=O)n(Cc3ccccc3)c2-c2ccc(C(=O)O)cc2)cc1 [Compound 0054, 3-Benzyl-4,5-bis-(4-hydroxycarbonylphenyl)-3-oxazolin-2-one] | 124 µM |  | 
CC(C)=CCC/C(C)=C/Cn1c(-c2ccccc2)c(-c2ccccc2)oc1=O [Compound 0070] | 4.3 µM | 46% | 
CC(C)=CCC/C(C)=C\CN1C(=O)O[C@H](c2ccccc2)[C@H]1c1ccccc1 [Compound 0296] | 11 µM | 21% | 
O=C1O[C@H](c2ccccc2)[C@H](c2ccccc2)N1Cc1cccc(F)c1 [Compound 0168] | 66 µM |  | 
COC(=O)c1c(-c2ccccc2)oc(=O)n1Cc1ccccc1 [Compound 0079] | 218 µM |  | 
O=c1oc(-c2ccccc2)c(-c2ccccc2)n1CCc1ccccc1 [Compound 0075, 4,5-Diphenyl-3-N-phenylethyl-3-oxazolin-2-one] | 14 µM | 21% | 
CC(C)=CCC[C@@H](C)CCN1C(=O)O[C@@H](c2ccccc2)[C@@H]1c1ccccc1 [Compound 0346] | 3 µM | 47% | 
O=C(O)c1[nH]c(=O)oc1-c1ccccc1 [Compound 0029] | 103 µM |  | 
O=C1O[C@H](c2ccccc2)[C@@H](c2ccccc2)N1Cc1cccc(F)c1 [Compound 0212] | 43 µM | 21% | 
CC(C)=CCC/C(C)=C/CN1C(=O)O[C@H](c2ccccc2)[C@H]1c1ccccc1 [Compound 0213] | 9.3 µM | 24% | 
O=C(NCCN1CCCCC1)c1[nH]c(=O)oc1-c1ccccc1 [Compound 0030] | 103 µM |  | 5 µg/min
O=c1[nH]c(-c2ccccc2)c(-c2ccc(S(=O)(=O)NCCC[n+]3ccccc3)cc2)o1 [Compound 0028] | 103 µM |  | 
CC(C)=CCC/C(C)=C/CN1C(=O)O[C@@H](c2ccccc2)[C@H]1c1ccccc1 [Compound 0182] | 66 µM |  | 
O=c1oc(-c2ccccc2)cn1Cc1ccccc1 [Compound 0073, 3-Benzyl-5-phenyl-4-oxazolin-2-one] | 50 µM |  | 
CC(C)=CCC/C(C)=C/CN1C(=O)O[C@@H](c2ccccc2)[C@@H]1c1ccccc1 [Compound 0288] | 2 µM | 50% | 
O=c1oc(-c2ccccc2)c(-c2ccccc2)n1CCCCOc1ccccc1 [Compound 0090] | 65 µM | 14% | 
O=c1oc(-c2ccccc2)c(-c2ccccc2)n1S(=O)(=O)c1ccc2ccccc2c1 [Compound 0067] | > 50 µM |  | 
O=c1oc(-c2ccccc2)c(-c2ccccc2)n1Cc1ccc(Cl)s1 [Compound 0086] | 8.3 µM | 19% | 
O=c1oc(C(c2ccccc2)c2ccccc2)cn1CCCOc1ccc(C(F)(F)F)cc1 [Compound 0153] | 126 µM |  | 
CC(C)=CCC/C(C)=C/CN1C(=O)OC[C@@H]1Cc1ccccc1 [Compound 0315] | 90 µM | 22% | 
O=c1oc(-c2ccccc2)cn1C(c1ccccc1)c1ccccc1 [Compound 0097] | 28 µM | 48% | 
CC(C)=CCC/C(C)=C/CN1C(=O)O[C@@H](c2cccs2)[C@@H]1c1ccccc1 [Compound 0325] | 8.7 µM | 32% | 
CC(C)=CCC/C(C)=C/CC/C(C)=C/CN1C(=O)O[C@H](c2ccccc2)[C@H]1c1ccccc1 [Compound 0303] | 50 µM | 18% | 
O=C(Cn1c(-c2ccccc2)c(-c2ccccc2)oc1=O)OC(c1ccccc1)c1ccccc1 [Compound 0003] | 52 µM |  | 
CN1CCN(S(=O)(=O)c2ccc(-c3oc(=O)[nH]c3-c3ccccc3)cc2)CC1 [Compound 0037] | 207 µM |  | 
O=C1O[C@@H](c2ccccc2)[C@@H](c2ccccc2)N1Cc1cccc(F)c1 [Compound 0181] | 101 µM |  | 
